The source of these data is patent publication US20240123015A1, “COMPOSITION FOR STRENGTHENING, DEVELOPING, DIFFERENTIATING, OR REGENERATING MUSCLE, OR PREVENTING, AMELIORATING, OR TREATING MUSCLE LOSS OR MUSCLE FATIGUE COMPRISING SCHIZONEPETA TENUIFOLIA EXTRACT AS EFFECTIVE COMPONENT” (KOREA INSTITUTE OF ORIENTAL MEDICINE, priority 2021, published 2024).

One data set relates to C2C12 cells. The experiment in a line: Viability recovery of muscle cells under H2O2 oxidative stress (CCK8). It counts as cell-based, mouse. The note with it: H2O2 250 μM alone; compared to control group. As for the experimental part: Mouse myoblast cell line (i.e., C2C12 cells) was purchased from ATCC (Manassas, VA, USA) and cultured at conditions of 37° C. and 5% CO2 in DMEM medium containing 10% fetal bovine serum. Once the cultured cells reached 80% confluency, the medium was replaced with other DMEM medium (Gibco) containing 2% horse serum, 100 units/ml of penicillin, and 100 μg/ml of streptomycin to induce cell differentiation. The cells were cultured for 5 days after replacing the medium to induce cell differentiation. The culture medium was replaced with fresh medium every 2 days during the differentiation process. To induce muscular atrophy, the cells were treated with H2O2 at a final concentration of 250 μM. Concurrently, the cells were treated with Schizonepeta tenuifolia extract obtained from Example 1 at a concentration of 100 μg/ml. After treating the cells with Schizonepeta tenuifolia extract and culturing them for 24 hours, the medium was replaced with fresh medium containing 10% CCK8 (Dojindo) solution. After incubating for 2 hours, the absorbance was measured at 450 nm to evaluate cell viability. Each sample was measured three times, and the mean value was calculated.

The test system of data set [1] is BALB/c mice. Put plainly: Fatigue-related factors (LDH, AST, ALT) in blood serum. It counts as in vivo, mouse. Particulars: dexamethasone 25 mg/kg.
Method: The extract prepared as a dry powder was dissolved in physiological saline and used for the administration. After two weeks of oral administration of the test sample, the evaluation was made by Rotarod test and also in terms of a change in fatigue-related factors in the blood.
At the end of the 1-hour time point after the oral administration of each test material for 2 weeks, the Rotarod test was carried out, and blood samples were collected immediately from the animal heart. The collected blood was centrifuged at 3,000 rpm, 4° C. for 15 minutes to separate the blood serum, which was then stored at −70° C. until further analysis. Thereafter, concentrations of lactate dehydrogenase (LDH), aspartate aminotransferase (AST), and alanine aminotransferase (ALT) in the blood serum were measured by using a biochemical analyzer (AU480 chemistry analyzer, Beckman Coulter Inc., Brea, CA, USA).
Data set [2] deals with BALB/c mice. The experiment in a line: Rotarod test in dexamethasone-induced animal model of fatigue. It counts as in vivo, mouse. Particulars: positive control 50 mg/kg, 2 weeks, 20 rpm. As for the experimental part: A 6-week-old male BALB/c mice was purchased from Orient Bio Inc. (Seongnam, South Korea) and used them for the test. The test animals were acclimated for one week in a breeding environment with a temperature of 25±2° C., humidity of 50±5%, and a 12-hour light-dark cycle, while being provided with ad libitum access to a standard diet (AIN-76A diet) and water. After the acclimation period, the animals were used for the test. The animal test of the present invention was carried out after obtaining an approval of Korea Institute of Oriental Medicine Institutional Animal Care and Use Committee.
The acclimated mice were randomly assigned to different groups: the normal group (Normal), the group administered with dexamethasone group (25 mg/kg), the group administered with Schizonepeta tenuifolia extract (HG, 200 mg/kg), and the positive control group administered with oxymetholone (50 mg/kg). Each group consisted of 6 mice. […]
Mouse was orally administered for 2 weeks with each test material, and then placed on the rod of a Rotarod apparatus and rotated at a speed of 20 rpm. The time until the mouse fell off the rod was then measured. […] The mean value of the three measurements for each animal was taken as the test result value, and the mean and standard deviation were calculated for each group of the six animals.

Turning to `OO` [H2O2], in the data set with C2C12 cells, the cell viability entry was “statistically significant decrease in cell viability”. With `C[C@@H]1C[C@H]2[C@@H]3CCC4=CC(=O)C=C[C@]4(C)[C@@]3(F)[C@@H](O)C[C@]2(C)[C@@]1(O)C(=O)CO` [dexamethasone], in the data set on BALB/c mice [1], the “LDH level in blood serum” value is “elevated levels”. In addition, in the data set on BALB/c mice [1] (compared to normal group), the “ALT level in blood serum” value is recorded as “statistically significant increase” and the “AST level in blood serum” value is given as “statistically significant increase”. As to `C[C@]12C/C(=C/O)C(=O)C[C@@H]1CC[C@@H]1[C@@H]2CC[C@@]2(C)[C@H]1CC[C@]2(C)O` [oxymetholone], in the data set on BALB/c mice [2], the “hanging time on the Rotarod” value was “statistically significant increase in the time spent hanging on the Rotarod”.
